“Also recorded” adds a separate entry of the source.
Key:
SPPL2a [1] = target: T1, SPPL2a (Homo sapiens, UniProt Q8TCT8); assay: FBA/SPPL2a co-transfected HEK 293T cell cleavage assay (Aβ ELISA, Western blot); assay type: cell-based
T1 construct: expressed in transfected cells; host or cells: HEK 293T
T1 sequence (Q8TCT8 26-520): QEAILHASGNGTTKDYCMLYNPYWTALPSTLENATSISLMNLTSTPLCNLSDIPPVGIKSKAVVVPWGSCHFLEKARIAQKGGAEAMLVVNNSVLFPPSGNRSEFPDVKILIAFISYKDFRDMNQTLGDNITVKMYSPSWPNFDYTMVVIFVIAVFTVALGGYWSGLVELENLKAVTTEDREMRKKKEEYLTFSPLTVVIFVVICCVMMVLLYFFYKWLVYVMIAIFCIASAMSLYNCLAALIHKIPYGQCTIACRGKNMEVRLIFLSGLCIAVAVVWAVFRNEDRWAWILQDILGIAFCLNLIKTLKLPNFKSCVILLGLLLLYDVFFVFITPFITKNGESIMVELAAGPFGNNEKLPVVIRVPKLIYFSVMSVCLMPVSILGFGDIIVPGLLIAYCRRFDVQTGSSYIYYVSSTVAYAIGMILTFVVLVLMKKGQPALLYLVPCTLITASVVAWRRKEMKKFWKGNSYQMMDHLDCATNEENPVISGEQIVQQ
Description: (§1) Expression constructs in pcDNA6 for COOH-terminal FLAG (DYKDDDDK) and strep (WSHPQFEK) tagged SPPL2a, SPPL2b, hSPP and pSPP were generated as previously described. Untagged versions of all enzymes were also made and ligated into the pAG3 vector. Substrates (Fig 1) were designed as follows: FLAG-BRI2_1-81- Aβ1-25/K16A (FBA). The K16A mutation was incorporated to prevent potential α-secretase cleavage that would preclude ELISA based detection of the released COOH-terminal fragment. The substrate DNA was cloned into the expression vector pcDNA6. Constructs were confirmed by DNA sequencing. The overexpression of substrates was performed by transiently transfecting human embryonic kidney (HEK 293T) cells with or without SPP/SPPL vectors. Cells were grown in DMEM media supplemented with Hyclone 10% fetal bovine serum (GE, Logan, Utah, USA) and 1% penicillin/streptomycin (Life Technologies, Grand Island, NY, USA). Briefly, 2.7 μg DNA was applied to a 75% confluent 6 well plate (Corning, Tewksbury, MA, USA) using the polycation polyethylenimine (PEI) transfection method. Inhibitor testing experiments were conducted in 48 well plates with appropriately adjusted amounts of DNA and PEI and incubated 12–16 hours, after which the growth medium was replaced with fresh medium. DMSO (Sigma, St. Louis, MO, USA) and GSIs were added at the appropriate concentration. The GSIs, L685,458 and Compound W were purchased from Tocris (Tocris, Bristol, UK). (Z-LL)2 ketone, Compound E, DAPT, GSI II were purchased from Calbiochem (Merck Millipore, Billerica, MA, USA). LY-411,575 was synthesized by A. Fauq at the Mayo Clinic Chemical Core. Twenty-four hours later, the medium was collected for assay by ELISA and MS. A20 cells (TIB-208) (ATCC, Manassas, VA, USA) were cultured in RPMI-1640 medium (ATCC) supplied with 10% fetal bovine serum, 1% penicillin/streptomycin and 0.05 mM 2-mercaptoethanol (Life Technologies). At the density of 5x10^5 cells/ml, A20 cells were spun down at 1000 g for 2 min and resuspended in fresh medium supplied with DMSO or GSIs and incubated for 16 hr.
(§2) Sandwich ELISAs used for Aβ detection were performed as previously described. Briefly, Aβ and Aβ adducts with substrate TMD in conditioned media was captured with Ab5 antibody (human Aβ1–16 specific) and detected with horseradish peroxidase mAb 4G8 (Covance, Princeton, NJ, USA). Synthetic Aβ1–40 was used as standard. All ELISAs were developed with TMB substrate (KPL, Gaithersburg, Maryland, USA). Bis-Tris precast gels (Biorad, Hercules, CA, USA) were used for all SDS-PAGE. Monoclonal anti-FLAG M2 antibody (Sigma) and Aβ1–16 antibody 6E10 (Covance) were used for Western blotting. Antisera against SPPL2a, SPPL2b, hSPP and pSPP were generated as previously described and were used at dilution of 1:1000 for Western blotting. Anti-CD74 In-1 antibody (BD Bioscience, San Jose, CA, USA) was used for A20 cell lysate Western blotting at dilution of 1:1000.

SPPL2b = target: T2, SPPL2b (Homo sapiens, UniProt Q8TCT7); assay: FBA/SPPL2b co-transfected HEK 293T cell cleavage assay (Aβ ELISA, Western blot, IP/MS); assay type: cell-based
T2 construct: expressed in transfected cells; host or cells: HEK 293T
T2 sequence (Q8TCT7 26-592): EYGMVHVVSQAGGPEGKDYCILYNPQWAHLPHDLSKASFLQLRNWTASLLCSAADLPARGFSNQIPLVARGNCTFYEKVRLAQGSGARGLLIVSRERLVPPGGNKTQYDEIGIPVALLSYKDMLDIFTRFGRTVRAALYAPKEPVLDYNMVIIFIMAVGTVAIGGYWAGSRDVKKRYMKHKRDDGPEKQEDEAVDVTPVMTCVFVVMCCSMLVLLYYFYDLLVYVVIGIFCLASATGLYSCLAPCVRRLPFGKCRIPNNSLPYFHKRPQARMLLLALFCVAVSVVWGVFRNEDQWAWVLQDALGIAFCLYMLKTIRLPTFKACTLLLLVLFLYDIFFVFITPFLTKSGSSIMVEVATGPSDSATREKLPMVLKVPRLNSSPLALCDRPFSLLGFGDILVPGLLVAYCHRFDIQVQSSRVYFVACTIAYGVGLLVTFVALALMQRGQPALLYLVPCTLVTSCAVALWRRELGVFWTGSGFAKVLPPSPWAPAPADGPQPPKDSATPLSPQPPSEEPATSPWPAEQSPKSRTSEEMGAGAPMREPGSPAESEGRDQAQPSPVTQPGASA
Description: as §1, §2
(§3) Immunoprecipitation and mass spectrometry of xAβ1–25 in conditioned media were performed as previously described. In this study, 10 ml conditioned media were used for each experiment. ICDs were immunoprecipitated with anti-FLAG M2 magnetic beads. Cells from 10 cm dished treated with DMSO or 20 μM LY-411,575 were used for each test.

hSPP = target: T3, hSPP (Homo sapiens, UniProt Q8TCT9); assay: FBA/hSPP co-transfected HEK 293T cell cleavage assay (Aβ ELISA, Western blot, IP/MS); assay type: cell-based; settings: for IC50: HEK cells, 24 h, xAβ1-25/K16A by Aβ ELISA, mean ± standard error, read-out: IC50 on FBA/SPPL co-transfected cells
T3 construct: expressed in transfected cells; host or cells: HEK 293T
T3 sequence (Q8TCT9 1-377): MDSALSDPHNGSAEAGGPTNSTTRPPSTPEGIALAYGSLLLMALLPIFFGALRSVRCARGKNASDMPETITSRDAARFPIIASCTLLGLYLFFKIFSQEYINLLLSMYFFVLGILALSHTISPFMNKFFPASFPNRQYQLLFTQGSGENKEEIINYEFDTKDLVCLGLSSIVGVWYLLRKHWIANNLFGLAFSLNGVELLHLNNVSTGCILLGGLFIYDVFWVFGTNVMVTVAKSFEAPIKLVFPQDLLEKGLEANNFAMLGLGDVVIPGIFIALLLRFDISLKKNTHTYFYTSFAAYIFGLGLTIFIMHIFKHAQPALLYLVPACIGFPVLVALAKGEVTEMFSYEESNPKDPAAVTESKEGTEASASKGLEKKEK
Description: as §1, §2, §3

pSPP = pSPP (Plasmodium falciparum, UniProt Q8IKQ9); assay: FBA/pSPP co-transfected HEK 293T cell cleavage assay (Aβ ELISA, Western blot, IP/MS); assay type: cell-based, human; settings: for inhibition of xAβ1-25/K16A secretion (in words): 25 μM, ELISA
Chain of pSPP (Q8IKQ9 entry or part of it): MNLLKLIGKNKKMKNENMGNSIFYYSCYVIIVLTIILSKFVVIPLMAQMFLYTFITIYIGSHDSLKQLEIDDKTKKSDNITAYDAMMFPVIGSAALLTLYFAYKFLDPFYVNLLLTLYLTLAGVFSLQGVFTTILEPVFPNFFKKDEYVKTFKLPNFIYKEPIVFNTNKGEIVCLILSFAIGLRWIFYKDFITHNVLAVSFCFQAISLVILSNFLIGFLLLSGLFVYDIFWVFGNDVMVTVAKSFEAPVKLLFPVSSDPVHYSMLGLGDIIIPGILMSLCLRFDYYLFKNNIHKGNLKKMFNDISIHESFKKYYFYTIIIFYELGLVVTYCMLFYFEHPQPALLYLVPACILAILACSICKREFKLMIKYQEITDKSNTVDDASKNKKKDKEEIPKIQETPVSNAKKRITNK
Description: as §1, §2, §3

SPPL2a [2] = test system: T4, SPPL2a; assay: Endogenous CD74 NTF P8 turnover in non-overexpressing A20 cells (Western blot, In-1 antibody); assay type: cell-based, mouse
T4 construct: endogenous SPPL2a cleavage of CD74 in a murine B-Cell line; host or cells: A20 mouse B lymphocyte cells
Protocol: as §1, with “Untagged” for “Expression constructs in pcDNA6 for COOH-terminal FLAG (DYKDDDDK) and strep (WSHPQFEK) tagged SPPL2a, SPPL2b, hSPP and pSPP were generated as previously described. Untagged”
as §2

SPP = test system: SPP; design: method as in PMID 15252014, PMID 19337374, PMID 12621027; settings: cited from earlier work
[3] = HEK cells, 24 h, xAβ1-25/K16A by Aβ ELISA, mean ± standard error, read-out: IC50 on FBA/SPPL co-transfected cells
[4] = HEK-293T, 25 μM, ELISA, DMSO = 100%, read-out: inhibition of the SPP/SPPLs
[5] = number in parenthesis in Table 3

Compound: O=C(O)c1cc(Oc2ccc([N+](=O)[O-])cc2)cc(Oc2ccc([N+](=O)[O-])cc2)c1 [Comp W, Compound W]
- inhibition of xAβ1-25/K16A secretion (in words) (SPPL2a [1]; 25 μM, ELISA): does not show inhibition
- inhibition of xAβ1-25/K16A secretion (in words) (SPPL2b; 25 μM, ELISA): does not show inhibition
- inhibition of xAβ1-25/K16A secretion (in words) (hSPP; 25 μM, ELISA): does not show inhibition
- inhibition of xAβ1-25/K16A secretion (in words) (pSPP; pSPP): does not show inhibition

Compound: C[C@H](NC(=O)Cc1cc(F)cc(F)c1)C(=O)N[C@@H]1C(=O)N(C)c2ccccc2-c2ccccc21 [DBZ]
- inhibition of FBA cleavage (10 kD ICD) by Western blot (SPPL2b; Fig 3C upper panel): slightly reduce
- inhibition of xAβ1-25/K16A secretion (in words) (hSPP; 25 μM, ELISA): inhibited; also recorded: selectively inhibit hSPP cleavage
- inhibition of FBA cleavage by Western blot (hSPP; Fig 3C lower panel): efficiently inhibited
- IC50 (hSPP): 948 ± 93 nM
- dose response of P8 fragment stabilization (in words) (SPPL2a [2]; different doses): stabilized the P8 fragment in a dose dependent manner; also recorded: much weaker inhibition
- concentration at which effect was first seen (SPPL2a [2]; dose response): 1 µM

Compound: CC(C)C[C@H](NC(=O)[C@H](Cc1ccccc1)C[C@@H](O)[C@H](Cc1ccccc1)NC(=O)OC(C)(C)C)C(=O)N[C@@H](Cc1ccccc1)C(N)=O [L685,458]
- inhibition of xAβ1-25/K16A secretion (in words) (SPPL2a [1]; 25 μM, ELISA): largely inhibited
- IC50 (SPPL2a [1]; [3]): 570 ± 90 nM
- inhibition at 25 µM (SPPL2a [1]; [4]): > 90%
- rank order of inhibition (SPPL2a [1]; [5]): 3
- inhibition of xAβ1-25/K16A secretion (in words) (SPPL2b; 25 μM, ELISA): largely inhibited
- IC50 (SPPL2b; [3]): 876 ± 133 nM
- inhibition at 25 µM (SPPL2b; [4]): > 90%
- rank order of inhibition (SPPL2b; [5]): 1
- inhibition of xAβ1-25/K16A secretion (in words) (hSPP; 25 μM, ELISA): largely inhibited
- IC50 (hSPP): 319 ± 91 nM
- inhibition at 25 µM (hSPP; [4]): > 90%
- rank order of inhibition (hSPP; [5]): 2
- IC50 (pSPP): 161 ± 97 nM
- inhibition at 25 µM (pSPP; HEK-293T, read-out: inhibition of the SPP/SPPLs): > 90%
- inhibition of xAβ1-25/K16A secretion (in words) (pSPP; pSPP): largely inhibited
- rank order of inhibition (pSPP; pSPP, number in parenthesis in Table 3): 1
- inhibition of SPP activity (SPP): inhibit the activity of SPP

From paper PMC4457840, “Differential Inhibition of Signal Peptide Peptidase Family Members by Established γ-Secretase Inhibitors” (PLoS ONE, 2015)
